# Test results reported in EPA's ToxValDB 9.5 (doi:10.2903/j.efsa.2010.1871).
# Tests used:
# Apis mellifera = conditions: acute; duration: 48 hours; dermal; mortality
# Bibionidae = conditions: chronic/long-term; duration: 28 days; other
# Canidae = conditions: oral, Dog Other, hematological
# Daphnia magna = conditions: chronic/long-term, duration: 21 days
# Lepomis macrochirus = conditions: acute; duration: 96 hours; mortality
# Macromiidae = conditions: acute; duration: 96 hours; growth
# Mus musculus = conditions: acute; oral; mortality
# Pimephales promelas = conditions: chronic/long-term; duration: 35 days; growth
# Tagia sp. = conditions: acute; duration: 14 days; mortality
# Adalia sp. = experiment: LR50; higher = less toxic; conditions: chronic/long-term; duration: 21 days; mortality
# [1] = reproduction developmental, reproduction
compound,measurement,setting,value
CCc1ccc(C(=O)NN(C(=O)c2cc(C)cc(C)c2)C(C)(C)C)cc1 [Tebufenozide],LD50,Apis mellifera,> 234 µg/piece
same,NOEC,Bibionidae,0.0057 mg/L
same,NOAEL,"Canidae; chronic, duration: 52 weeks",2 mg/kg-day
same,NOAEL,"Canidae; subchronic, duration: 90 days",2 mg/kg-day
same,LC50,"Colinus virginianus; acute, oral, diet, mortality",> 814 mg/kg
same,LD50,"Colinus virginianus; acute, oral, mortality",> 2150 mg/kg
same,NOAEL,Colinus virginianus; [1],48 mg/kg-day
same,NOEC,Daphnia magna; growth,0.029 mg/L
same,NOEC,Daphnia magna; reproduction,0.0078 mg/L
same,LC50,Lepomis macrochirus,3 µg/mL
same,NOEC,Macromiidae,0.046 mg/L
same,LD50,Mus musculus,> 5000 mg/kg
same,NOEC,Pimephales promelas,0.71 mg/L
same,LD50,"Rattus norvegicus; acute, oral, mortality",> 5000 mg/kg
same,NOAEL,Rattus norvegicus; [1],15 mg/kg-day
same,LC50,Tagia sp.,> 1000 mg/kg
same,NOEC,Tagia sp.,≥ 1000 mg/kg
same,LR50,Adalia sp.,> 128 g/ha
